Entries after “also recorded” stand apart in the source; their conditions may differ.

In general, IC50 refers to the concentration that inhibits the measured activity by half.

Data set [1] can be described thus: Stability by UV-vis measurements at different pH. The data set is classed as physicochemical. The settings on record: 50 µM, pH 2, 4.5, 7.4 and 8.4, after 1, 2, 3 and 24 h. How it is done:
The stability of the compounds was also considered a potential issue. Therefore, selected compounds (3a, 3d, 5d, and 5e at a concentration of 50 µM) were studied by UV-vis measurements under different pH conditions, including pH 2, 4.5, 7.4, and 8.4, to represent different physiological (gastric, intestinal, etc.) conditions.

Data set [2] relates to isolated rat-brain synaptosomes. Kind of data set: Level of reduced glutathione (GSH) in isolated synaptosomes, substances administered alone. The settings on record: 100 µM. As for the experimental part: (§1) Preparation of the synaptosomes was carried out by multiple centrifugations using the Percoll gradient. Homogenization of the brains was performed in 10 volumes of cold buffer 1, which contained 5 mM HEPES and 0.32 M sucrose (pH = 7.4), followed by centrifugation at different speeds. For preparation of the gradient, the synaptosomes were isolated by Percoll reagent. Synaptosomes were resuspended and incubated in buffer 2, which contained 290 mM NaCl, 0.95 mM MgCl2x6H2O, 10 mM KCl, 2.4 mM CaCl2xH2O, 2.1 mM NaH2PO4, 44 mM HEPES, and 13 mM D-glucose. Incubations were performed in a 5% CO2 + 95% O2 atmosphere. The method of Lowry et al., using bovine serum albumin as a standard content, was applied for determination of synaptosomal protein [51].
After the treatment with the tested compounds, the glutathione levels of the synaptosomes were determined with an Ellman reagent (DTNB). The GSH levels were evaluated based on the synaptosomal sediment, precipitated with 5% TCA, and centrifuged for 10 min at 4000× g. GSH levels in the supernatant were measured spectrophotometrically at 412 nm by a Spectro UV-vis split spectrophotometer (LaboMed. Inc., Los Angelis, California, USA). […]

In data set [3] the test system is SH-SY5Y cells. Kind of data set: H2O2-induced oxidative stress model in SH-SY5Y cells. The data set is classed as cell-based, human. Conditions: H2O2 1 mM 15 min. How it is done: The SH-SY5Y cells were seeded in 96-well plates at a density of 3.5 × 10^4/well in 100 μL of RPMI supplemented with FBS for 24 h. Then, the cell medium was aspirated, and the cells were treated with different concentrations of the compounds—1, 10, and 50 µM for 90 min. Afterwards, the SH-SY5Y cells were washed with PBS and were exposed to hydrogen peroxide (H2O2) (1 mM in PBS for 15 min) to induce oxidative stress. All well contents were replaced by fresh culture medium and incubated for 24 h. MTT assay was used to evaluate the amount of attached viable cells. Negative controls (cells without H2O2 treatment) were considered as 100% protection and H2O2-treated cells as 0% protection.
To evaluate the possible neuroprotective effects of the compounds, the SH-SY5Y cells were pre-treated with different concentrations (1, 10, 50 µM) for 90 min and then exposed to H2O2 (1 mM) for 15 min. The cell viability of all compounds was measured to verify their protective effect against the toxicity of hydrogen peroxide.

Data set [4] concerns isolated rat-brain synaptosomes. Kind of data set: Synaptosomal viability (MTT), substances administered alone. The settings on record: 100 µM. How it is done:
as §1
Synaptosomal viability was monitored based on a (3-(4,5)-dimethylthiazol-2-yl)-2,5-diphenyl tetrazolium bromide) assay. After incubation with the compounds, synaptosomes were treated with 0.5 mg/mL solution of (3-(4,5)-dimethylthiazol-2-yl)-2,5-diphenyl tetrazolium bromide) for 10 min at […]. Then, the synaptosomes were centrifuged twice at 15,000× g for 1 min. The resulting formazan crystals were dissolved in DMSO (dimethyl sulfoxide), and the extinction was determined by spectrophotometric measurements at 580–660 nm. […]

A further data set deals with bEnd3 cells. Briefly: MTT cell viability assay (cytotoxicity), bEnd3. The settings on record: 24 h, 1–500 µM. It counts as cell-based, mouse. In short, it runs like this: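 bEnd3 mouse brain endothelial cells (0.7 × 10^4/well, 24 h adherence) were exposed to compounds at 1–500 μM for 24 h, with 0.5% DMSO as solvent control. Viability was read by MTT reduction (0.5 mg/mL, 3 h, 37 °C) as absorbance at 570 nm.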
For orientation: Formazan colour is commonly taken as a measure of viable cells.

Data set [5] has as its system SH-SY5Y cells. Briefly: MTT cell viability assay (cytotoxicity), SH-SY5Y. The gist of the method: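 SH-SY5Y cells seeded at 2 × 10^4 cells/well, adhered 24 h, then exposed to compounds (1–500 μM) for 24 h at 37 °C, 5% CO2; DMSO ≤0.5% as solvent control. MTT (0.5 mg/mL) added for 3 h, formazan dissolved, absorbance read at 570 nm; ≥6 wells per concentration.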

As for `COc1cc(C=NNC(=O)CCc2c[nH]c3ccccc23)ccc1O` [Compound 3d, N′-(4-Hydroxy-3-methoxybenzylidene)-3-(1H-indol-3-yl)propanehydrazide], in data set [1], the “stability (UV-vis spectra over time)” value was “stable over time”.

As to `COc1cc(C=NNC(=O)CCc2c[nH]c3ccccc23)cc(OC)c1O` [Compound 3f, N′-(4-Hydroxy-3,5-dimethoxybenzylidene)-3-(1H-indol-3-yl)propanehydrazide], the “reduction of GSH level vs. non-treated synaptosomes” value in data set [2] was 40%.

With `COc1ccc(C=NNC(=O)c2cc3cc(OC)ccc3[nH]2)c(O)c1` [Compound 5e, N′-(2-Hydroxy-4-methoxybenzylidene)-5-methoxy-1H-indole-2-carbohydrazide], the “stability (UV-vis spectra over time)” value in data set [1] is given as “stable over time; also recorded: very good stability”.

In the case of `COc1ccc2[nH]cc(CCNC(C)=O)c2c1` [Melatonin], the “protective effect: increased cell viability of SH-SY5Y vs. H2O2 group” value in the data set on SH-SY5Y cells [3] (1 µM pre-treatment 90 min) amounted to 19%; with SH-SY5Y cells [3] (10 µM pre-treatment 90 min), 42%; in the data set on SH-SY5Y cells [3] (50 µM pre-treatment 90 min), 64%. In addition, the “reduction of GSH level vs. non-treated synaptosomes” value in data set [2] is recorded as “did not decrease”. Further, the “reduction of synaptosomal viability (SV) vs. non-treated synaptosomes” value in data set [4] came out at 20%.

Regarding “N′-(4-Hydroxy-2-methoxybenzylidene)-3-(1H-indol-3-yl)propanehydrazide [Compound 3e]”, the results for the IC50 with bEnd3 cells and with SH-SY5Y cells [5] were 85.5 µM and above 500 µM, respectively.

The values are drawn from article PMC10135567, “New Indole-3-Propionic Acid and 5-Methoxy-Indole Carboxylic Acid Derived Hydrazone Hybrids as Multifunctional Neuroprotectors” (Antioxidants, 2023).
